Test results from patent US20200247815A1, “PYRAZOLYL-CONTAINING TRICYCLIC DERIVATIVE, PREPARATION METHOD THEREFOR AND USE THEREOF” (Jiangsu Hansoh Pharmaceutical Group Co., Ltd., priority 2017, published 2020).

Columns and labels:
[1] = target: T1, ERK-2 kinase (Homo sapiens, UniProt P28482); test: Inhibition of ERK-2 kinase activity (LANCE Ultra TR-FRET); format: biochemical; details: ERK-2 enzyme 0.08 nM, ATP 38.15 μM
T1 construct: purchased Invitrogen PV3313
In short: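 Recombinant ERK-2 (0.08 nM) with ULight-MBP peptide (0.5 μM) and ATP (38.15 μM) in Hepes pH 7.4 buffer, compound 100 nM to 0.005 nM final, 4% DMSO, 60 min at room temperature. Eu-anti-p-MBP TR-FRET (665/615 nm) read after EDTA stop; % inhibition versus DMSO and no-enzyme controls fitted 4-parameter for Abs_IC50.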

[2] = Pharmacokinetics assay in mice (oral, plasma); format: in vivo, Balb/c Mouse; details: for Exposure in mouse plasma: dose of 50 mg/kg, oral; for Cmax / MRT / Tmax / half-life / AUC(0-t): mouse, male Balb/c mice, PO 50 mg/kg, plasma; for AUC(0-t): read-out: AUC0-24
Procedure: Balb/c Mouse was used as the test animal. The pharmacokinetic behavior of compounds of Example 1, 2 and 7 administrated orally was studied in mice (plasma).
170 g of PEG400 and 20 g of Solutol HS-15 were added to a 250 mL glass flask, and then 10 mL of NMP was added. The solution was mixed well by ultrasound for 10 minutes to obtain a clear solution.
11.2 mg of the compound of Example 1, 10.8 mg of the compound of Example 2 and 9.8 mg of the compound of Example 7 were weighted to a 4 mL glass flasks respectively, […], 2.160 mL and […] of the above solution were treated by ultrasound for 10 minutes to obtain a colorless clear solution with a concentration of 5 mg/mL.
After fasting overnight, the male Balb/c mice were administrated with the compounds (PO), the dose was 50 mg/kg, and the administration volume was 10 mL/kg.
Blood was taken before administration and at 0.25, 0.5, 1, 2, 4, 6, 8 and 24 hours after administration. The blood samples were stored in EDTA-2K tubes, and centrifuged for 6 minutes to separate the blood plasma. The plasma samples were stored at −80° C.

[3] = tested on: human pancreatic cancer cell MiaPaca 2 xenograft (CDX) model; test: Tumor inhibition experiment in MiaPaca 2 xenograft model; format: in vivo, BALB/c nude mice
Procedure: BALB/c nude mice were used as test animals. In vivo pharmacodynamic test was carried out in human pancreatic cancer cell MiaPaca 2 xenograft (CDX) model to evaluate the antitumor effect of the test compound.
MiaPaca 2 cells were obtained from the cell bank. After recovery, the cells were added to a DMEM medium (containing 10% FBS, 1% Glu and 1% P/S), and incubated in the CO2 incubator (the incubator temperature was 37° C., and the CO2 concentration was 5%). The cells were subjected to passage after spreading 80-90% of the bottom of the culture flask. After passage, the cells were incubated in the CO2 incubator. This process was repeated until the number of cells met the required by in vivo pharmacological inoculation. Cells in log phase were collected, and counted by the automatic cell counter. The cells were re-suspended with PBS and Matrigel (1:1 by volume) based on the counting results to obtain a cell suspension (cell density: […]), which was placed in an ice box.
Female BALB/c nude mice (6-8 weeks old, body weight: 18-22 grams) were used as test animals. The mice were maintained in individually ventilated cages (5 mice per cage) in a special pathogen-free environment. All cages, padding and water were disinfected before use. All animals had free access to standard certified commercial laboratory diets. The nude mice were labeled with disposable ear tags before the experiment. The skin of the inoculated area was sterilized with 75% medical alcohol before inoculation. Each mouse was subcutaneously inoculated with 0.1 ml (containing 8*10^6 cells) of MiaPaca 2 tumor cells on the right back. Administration was started when the average tumor volume reached 100-200 mm^3. The test compound was administrated intragastrically daily. The tumor volume (mm^3) was measured with vernier caliper twice a week. Calculation formula: V=0.5*D*d*d, wherein D and d refer to the major and minor diameter of the tumor, respectively. The anti-tumor efficacy was determined by dividing the average tumor increase volume of compound-treated animals by the average tumor increase volume of untreated animals. Calculation formula of tumor inhibition rate: TGI (%)=1−[(Vt−V0)administration group/(Vt−V0)solvent control group]*100%. All animals were euthanized after the experiment.

[4] = 50 mg/kg QD × 16 d, intragastric, Day 16
[5] = 50 mg/kg BID × 3 w, intragastric
[6] = 100 mg/kg QD × 3 w, intragastric

T1 sequence (P28482 whole entry): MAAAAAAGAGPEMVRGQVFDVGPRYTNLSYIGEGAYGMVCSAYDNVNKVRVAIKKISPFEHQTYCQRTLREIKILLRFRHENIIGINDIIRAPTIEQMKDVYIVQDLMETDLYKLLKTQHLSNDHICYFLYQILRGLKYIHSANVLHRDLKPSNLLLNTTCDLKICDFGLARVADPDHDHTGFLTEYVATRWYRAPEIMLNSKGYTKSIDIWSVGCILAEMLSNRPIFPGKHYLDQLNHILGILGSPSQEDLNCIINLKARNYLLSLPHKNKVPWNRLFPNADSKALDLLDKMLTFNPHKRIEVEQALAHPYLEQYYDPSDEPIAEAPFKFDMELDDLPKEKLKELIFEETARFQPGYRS

C[C@@H](NC(=O)c1cc2cc3c(-c4ccncc4)n[nH]c3cc2[nH]1)c1ccccc1 [Example 1, (R)—N-(1-phenylethyl)-3-(pyridin-4-yl)-1,7-dihydropyrrolo[3,2-f]indazole-6-carboxamide]
IC50 [1]: 0.17 nM
Exposure in mouse plasma [2]: good exposure
Cmax [2]: 1310 ng/mL
MRT [2]: 8.99 h
Tmax [2]: 0.5 h
half-life [2]: 6.59 h
AUC(0-t) [2]: 14700 ng·h/mL
Tumor volume (Mean ± SD) Day 0 ([3]; 50 mg/kg QD × 16 d, intragastric): 154 ± 29 mm^3
TGI Day 16 [3, 4]: 86.63%
Tumor volume (Mean ± SD) Day 16 [3, 4]: 214 ± 97 mm^3
ΔT/ΔC Day 16 [3, 4]: 13.37%
Inhibition of growth of xenograft ([3]; 50 mg/kg QD, continuous oral administration for 16 days): significantly inhibit the growth

C[C@@H](NC(=O)c1nc2cc3c(-c4ccncc4)n[nH]c3cc2[nH]1)c1ccccc1 [Example 2, (R)—N-(1-phenylethyl)-3-(pyridin-4-yl)-1,7-dihydroimidazo[4,5-f]indazole-6-carboxamide]
IC50 [1]: 0.19 nM
Exposure in mouse plasma [2]: good exposure
Cmax [2]: 15900 ng/mL
MRT [2]: 2.44 h
Tmax [2]: 2 h
half-life [2]: 0.82 h
AUC(0-t) [2]: 50400 ng·h/mL
Tumor volume (Mean ± SD) Day 0 [3, 5]: 156 ± 27 mm^3
TGI Day 21 [3, 5]: 85.07%
Tumor volume (Mean ± SD) Day 21 [3, 5]: 253 ± 32 mm^3
ΔT/ΔC Day 21 [3, 5]: 14.93%
Inhibition of growth of xenograft ([3]; 50 mg/kg BID, continuous oral administration for 21 days): significantly inhibit the growth
Tumor volume (Mean ± SD) Day 0 [3, 6]: 156 ± 24 mm^3
TGI Day 21 [3, 6]: 91.14%
Tumor volume (Mean ± SD) Day 21 [3, 6]: 214 ± 104 mm^3
ΔT/ΔC Day 21 [3, 6]: 8.86%
Inhibition of growth of xenograft ([3]; 100 mg/kg QD, continuous oral administration for 21 days): significantly inhibit the growth
